Experiment: wn = mass fraction of the nth substance listed
Settings: Liquid, Capillary tube (Ostwald / Ubbelohde) method

O=S(=O)([O-])[O-].[Na+].[Na+] [sodium sulfate] + O
viscosity [mPa·s]
Settings | 100 kPa | 10000 kPa | 20000 kPa | 30000 kPa | 40000 kPa
298.15 K, w1 = 0.015 | 0.933 | 0.9335 | 0.9365 | 0.9399 | 0.942
298.15 K, w1 = 0.03 | 0.9746 | 0.9759 | 0.9769 | 0.9799 | 0.9812
298.15 K, w1 = 0.05 | 1.035 | 1.04 | 1.041 | 1.042 | 1.044
298.15 K, w1 = 0.07 | 1.119 | 1.119 | 1.119 | 1.121 | 1.122
298.15 K, w1 = 0.1 | 1.252 | 1.255 | 1.256 | 1.257 | 1.258
298.15 K, w1 = 0.15 | 1.545 | 1.548 | 1.55 | 1.551 | 1.554
298.15 K, w1 = 0.2 | 1.963 | 1.965 | 1.966 | 1.967 | 1.968
303.15 K, w1 = 0.23 | 1.993 | 1.993 | 1.996 | 1.999 | 2.002
303.15 K, w1 = 0.26 | 2.243 | 2.245 | 2.249 | 2.253 | 2.259
323.05 K, w1 = 0.1 | 0.7656 | 0.767 | 0.771 | 0.7745 | 0.778
323.15 K, w1 = 0.03 | 0.5972 | 0.5991 | 0.6012 | 0.6054 | 0.609
323.15 K, w1 = 0.2 | 1.168 | 1.17 | 1.176 | 1.181 | 1.185
323.15 K, w1 = 0.23 | 1.333 | 1.336 | 1.34 | 1.346 | 1.353
323.15 K, w1 = 0.26 | 1.504 | 1.505 | 1.509 | 1.515 | 1.523
323.25 K, w1 = 0.07 | 0.6825 | 0.6846 | 0.6875 | 0.6902 | 0.6935
323.4 K, w1 = 0.15 | 0.9286 | 0.9316 | 0.9354 | 0.9401 | 0.945
323.7 K, w1 = 0.015 | 0.5669 | 0.5741 | 0.5795 | 0.5821 | 0.5835
323.8 K, w1 = 0.05 | 0.6285 | 0.632 | 0.633 | 0.636 | 0.6385
347.2 K, w1 = 0.05 | 0.4434 | 0.4465 | 0.4496 | 0.453 | 0.4587
347.6 K, w1 = 0.07 | 0.4733 | 0.4764 | 0.4795 | 0.4824 | 0.4875
347.9 K, w1 = 0.2 | 0.7892 | 0.7944 | 0.8004 | 0.8053 | 0.811
348.15 K, w1 = 0.015 | 0.395 | 0.3977 | 0.4006 | 0.4038 | 0.4087
348.35 K, w1 = 0.03 | 0.4107 | 0.4134 | 0.4169 | 0.42 | 0.4225
348.42 K, w1 = 0.1 | 0.5232 | 0.5267 | 0.5294 | 0.534 | 0.5399
348.6 K, w1 = 0.26 | 1.01 | 1.017 | 1.023 | 1.029 | 1.041
348.7 K, w1 = 0.15 | 0.6292 | 0.6336 | 0.6367 | 0.6418 | 0.6473
348.7 K, w1 = 0.23 | 0.8925 | 0.8987 | 0.9053 | 0.9128 | 0.92
370.4 K, w1 = 0.23 | – | 0.6799 | 0.6864 | 0.6905 | 0.6997
371.95 K, w1 = 0.05 | – | 0.3317 | 0.335 | 0.3389 | 0.343
372.4 K, w1 = 0.1 | – | 0.3948 | 0.3979 | 0.3998 | 0.4062
372.8 K, w1 = 0.15 | – | 0.4705 | 0.4743 | 0.4795 | 0.484
372.9 K, w1 = 0.03 | – | 0.3096 | 0.3124 | 0.3164 | 0.3186
373.8 K, w1 = 0.015 | – | 0.2947 | 0.2994 | 0.3034 | 0.3065
373.9 K, w1 = 0.07 | – | 0.3482 | 0.3508 | 0.3546 | 0.359
374.5 K, w1 = 0.2 | – | 0.5699 | 0.5743 | 0.5799 | 0.5875
375.2 K, w1 = 0.26 | – | 0.7321 | 0.7395 | 0.7436 | 0.7535
395.4 K, w1 = 0.15 | – | 0.3731 | 0.3767 | 0.381 | 0.386
395.62 K, w1 = 0.05 | – | 0.2626 | 0.2668 | 0.2695 | 0.2716
397.1 K, w1 = 0.07 | – | 0.2772 | 0.2799 | 0.2834 | 0.287
397.21 K, w1 = 0.2 | – | 0.4505 | 0.454 | 0.4598 | 0.4654
398.4 K, w1 = 0.03 | – | 0.2422 | 0.2468 | 0.2494 | 0.251
398.72 K, w1 = 0.1 | – | 0.3052 | 0.3094 | 0.3132 | 0.3159
398.8 K, w1 = 0.23 | – | 0.5081 | 0.5124 | 0.5185 | 0.5253
399.01 K, w1 = 0.015 | – | 0.2321 | 0.2367 | 0.2398 | 0.2412
399.4 K, w1 = 0.26 | – | 0.5695 | 0.5739 | 0.58 | 0.5895
420.3 K, w1 = 0.2 | – | 0.3686 | 0.3729 | 0.3775 | 0.3826
421.3 K, w1 = 0.15 | – | 0.2998 | 0.3027 | 0.3087 | 0.3114
421.4 K, w1 = 0.1 | – | 0.2535 | 0.2565 | 0.2596 | 0.2635
421.5 K, w1 = 0.03 | – | 0.2013 | 0.2035 | 0.2068 | 0.209
422.51 K, w1 = 0.23 | – | 0.4132 | 0.4195 | 0.4254 | 0.43
422.61 K, w1 = 0.015 | – | 0.1927 | 0.1968 | 0.1999 | 0.2022
423.8 K, w1 = 0.26 | – | 0.4623 | 0.4688 | 0.4726 | 0.4803
424.67 K, w1 = 0.05 | – | 0.2079 | 0.2096 | 0.213 | 0.2164
425.6 K, w1 = 0.07 | – | 0.2211 | 0.2267 | 0.2293 | 0.23
444.81 K, w1 = 0.2 | – | 0.3083 | 0.3129 | 0.3175 | 0.3219
446.24 K, w1 = 0.05 | – | 0.1796 | 0.182 | 0.1853 | 0.1879
447 K, w1 = 0.07 | – | 0.1913 | 0.1946 | 0.1975 | 0.1998
447.2 K, w1 = 0.1 | – | 0.2125 | 0.2163 | 0.2189 | 0.2219
447.6 K, w1 = 0.015 | – | 0.1633 | 0.1684 | 0.17 | 0.1724
447.6 K, w1 = 0.15 | – | 0.2493 | 0.2551 | 0.2575 | 0.2603
447.6 K, w1 = 0.26 | – | 0.3901 | 0.3981 | 0.401 | 0.4047
447.81 K, w1 = 0.03 | – | 0.1686 | 0.1705 | 0.1734 | 0.1761
447.9 K, w1 = 0.23 | – | 0.3449 | 0.3498 | 0.3568 | 0.3609
470.16 K, w1 = 0.05 | – | 0.1564 | 0.1598 | 0.1629 | 0.1647
470.7 K, w1 = 0.015 | – | 0.1432 | 0.1468 | 0.1499 | 0.1508
471.31 K, w1 = 0.1 | – | 0.1847 | 0.1878 | 0.1904 | 0.1941
472 K, w1 = 0.23 | – | 0.2966 | 0.3024 | 0.3086 | 0.312
472.2 K, w1 = 0.07 | – | 0.1656 | 0.1689 | 0.1706 | 0.1739
472.3 K, w1 = 0.2 | – | 0.2608 | 0.2661 | 0.2699 | 0.2739
473.7 K, w1 = 0.03 | – | 0.1456 | 0.1486 | 0.1514 | 0.153
473.9 K, w1 = 0.26 | – | 0.3308 | 0.3354 | 0.3413 | 0.3476
473.93 K, w1 = 0.15 | – | 0.2133 | 0.2169 | 0.2199 | 0.224
496.34 K, w1 = 0.23 | – | 0.262 | 0.2695 | 0.2734 | 0.2776
497.1 K, w1 = 0.03 | – | 0.1296 | 0.1312 | 0.136 | 0.1375
497.19 K, w1 = 0.2 | – | 0.2292 | 0.2335 | 0.2387 | 0.2425
497.8 K, w1 = 0.15 | – | 0.1892 | 0.1945 | 0.1978 | 0.2001
498.22 K, w1 = 0.1 | – | 0.1618 | 0.1641 | 0.1678 | 0.1711
498.3 K, w1 = 0.015 | – | 0.1248 | 0.1286 | 0.1307 | 0.1325
498.7 K, w1 = 0.07 | – | 0.1451 | 0.1489 | 0.1506 | 0.1533
498.7 K, w1 = 0.26 | – | 0.2923 | 0.2976 | 0.3018 | 0.309
499.3 K, w1 = 0.05 | – | 0.1352 | 0.1363 | 0.1392 | 0.143
520.5 K, w1 = 0.26 | – | 0.2636 | 0.2691 | 0.2746 | 0.2813
520.51 K, w1 = 0.23 | – | 0.2338 | 0.2387 | 0.2415 | 0.249
520.64 K, w1 = 0.015 | – | 0.1128 | 0.1165 | 0.1191 | 0.1209
522.4 K, w1 = 0.15 | – | 0.1686 | 0.1709 | 0.1748 | 0.179
523.1 K, w1 = 0.07 | – | 0.1298 | 0.1324 | 0.1367 | 0.1385
523.3 K, w1 = 0.03 | – | 0.115 | 0.1169 | 0.1196 | 0.1219
523.8 K, w1 = 0.2 | – | 0.2021 | 0.2076 | 0.2105 | 0.216
524.7 K, w1 = 0.05 | – | 0.1204 | 0.1231 | 0.1267 | 0.1286
525.4 K, w1 = 0.1 | – | 0.143 | 0.1469 | 0.1493 | 0.1524
545.3 K, w1 = 0.05 | – | 0.1097 | 0.112 | 0.1143 | 0.1177
545.4 K, w1 = 0.2 | – | 0.184 | 0.1879 | 0.1923 | 0.1989
546.2 K, w1 = 0.07 | – | 0.1171 | 0.1197 | 0.1224 | 0.1267
547.7 K, w1 = 0.15 | – | 0.151 | 0.1548 | 0.1589 | 0.1634
547.9 K, w1 = 0.015 | – | 0.1 | 0.1025 | 0.1068 | 0.1089
547.9 K, w1 = 0.1 | – | 0.1296 | 0.1329 | 0.136 | 0.1399
548.7 K, w1 = 0.23 | – | 0.2061 | 0.2106 | 0.2186 | 0.223
549.9 K, w1 = 0.03 | – | 0.1023 | 0.1065 | 0.1086 | 0.1109
570.5 K, w1 = 0.15 | – | 0.1354 | 0.1399 | 0.1463 | 0.1496
572.62 K, w1 = 0.03 | – | 0.092 | 0.0967 | 0.0992 | 0.102
572.96 K, w1 = 0.05 | – | 0.0965 | 0.0998 | 0.1029 | 0.1066
573.2 K, w1 = 0.1 | – | 0.1143 | 0.1178 | 0.1204 | 0.1266
573.5 K, w1 = 0.07 | – | 0.1031 | 0.1068 | 0.1092 | 0.1143
